{"source": "paper PMC2810230", "about": "“Antiplasmodial Activities of Homogentisic Acid Derivative Protein Kinase Inhibitors Isolated from a Vanuatu Marine Sponge Pseudoceratina sp” (Marine Drugs, 2009)", "key": {"Staphylococcus aureus": {"system": "Staphylococcus aureus", "test": "Antibacterial disc growth inhibition test, S. aureus", "type": "cell-based"}, "[1]": {"system": "chloroquine-resistant Plasmodium falciparum strain FcB1", "test": "Activity against erythrocytic stages of cultured P. falciparum (LDH assay)", "type": "cell-based", "conditions": "for IC50: read-out: FCB1 of P. falciparum IC50; for Antiplasmodial activity against FcB1 P. falciparum (in words): in vitro", "procedure": "The antiplasmodial activity was studied in vitro against the chloroquine-resistant Plasmodium falciparum strain FcB1 by a micromethod using the lactate deshydrogenase (LDH) assay (Makler and Hinrichs). Parasites were cultivated using the method of Trager and Jensen. Erythrocytes infected with P. falciparum (ring stage, 1% of parasitaemia) were re-suspended in complete culture medium at a haematocrit of 1.5%. The suspension was distributed in 96-well microtitre plates (200 μL per well). Drug testing was performed in triplicate. For each assay, a parasite culture was incubated with the drug for 48 h in 5% CO2 at 95% relative humidity, and frozen until the biochemical assay could be run. After defrosting, a 20 μL sub-sample of the contents of each well was mixed with 100 μL of a substrate solution containing 20 mg/mL of lithium L-lactate (Sigma), 5.5 mg/mL of TRIS (Sigma), and 3.7 mg/mL of 3-acetylpyridine adenine dinucleotide (APAD; Sigma), in the well of another microtitre plate. After incubation for 30 min, 25 μL of a mixture of NBT (1.6 mg/mL; Sigma) and PES (0.1 mg/mL; Sigma) were added to each well. After a further 35 min of incubation, the reaction was stopped by the addition of 25% acetic acid (25 μL per well). Accumulation of the reduced form of APAD was measured at λ = 650 nm, using a spectrophotometer (microplate reader, Metertech). IC50 values were determined graphically in a concentration versus percent inhibition curve."}, "Pfnek-1": {"target": "Pfnek-1 (Plasmodium falciparum, UniProt Q8I5D5)", "sequence (Q8I5D5 entry or part of it)": "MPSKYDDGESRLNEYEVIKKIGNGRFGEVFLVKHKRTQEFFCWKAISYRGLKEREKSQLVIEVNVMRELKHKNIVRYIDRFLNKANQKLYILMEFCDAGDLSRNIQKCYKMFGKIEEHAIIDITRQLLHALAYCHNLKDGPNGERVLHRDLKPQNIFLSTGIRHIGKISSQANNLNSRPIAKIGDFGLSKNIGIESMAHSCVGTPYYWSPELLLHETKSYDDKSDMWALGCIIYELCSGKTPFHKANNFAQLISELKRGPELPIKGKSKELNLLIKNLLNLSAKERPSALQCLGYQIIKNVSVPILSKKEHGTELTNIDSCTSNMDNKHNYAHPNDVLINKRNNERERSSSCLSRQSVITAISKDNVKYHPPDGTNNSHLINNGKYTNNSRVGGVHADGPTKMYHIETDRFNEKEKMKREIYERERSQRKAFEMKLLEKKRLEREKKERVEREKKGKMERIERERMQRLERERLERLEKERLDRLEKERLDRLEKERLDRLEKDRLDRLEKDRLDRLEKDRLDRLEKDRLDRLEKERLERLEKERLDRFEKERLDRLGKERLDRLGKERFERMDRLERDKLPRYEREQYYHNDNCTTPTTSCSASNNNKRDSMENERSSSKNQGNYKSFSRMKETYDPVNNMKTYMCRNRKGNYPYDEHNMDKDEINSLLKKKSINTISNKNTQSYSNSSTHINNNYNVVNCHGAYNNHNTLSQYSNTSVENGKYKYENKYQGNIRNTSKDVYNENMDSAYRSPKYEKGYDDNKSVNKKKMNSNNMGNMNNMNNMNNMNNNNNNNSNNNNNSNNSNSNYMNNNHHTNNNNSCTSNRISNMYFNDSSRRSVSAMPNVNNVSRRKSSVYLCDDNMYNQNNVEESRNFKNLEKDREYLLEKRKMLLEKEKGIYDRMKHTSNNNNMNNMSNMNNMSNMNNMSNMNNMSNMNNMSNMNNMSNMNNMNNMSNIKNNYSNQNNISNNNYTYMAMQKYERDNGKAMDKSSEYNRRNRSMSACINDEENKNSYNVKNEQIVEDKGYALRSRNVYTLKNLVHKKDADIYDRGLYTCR", "test": "Pfnek-1 protein kinase assay (33P incorporation in β-casein)", "type": "biochemical", "procedure": "A GST-Pfnek-1 fusion protein was purified from the Escherichia coli BL21 strain carrying a Pfnek-1 expression plasmid harbouring an ampicillin resistance cassette (bacteria kindly provided by D. Dorin, INSERM 511) as described by Dorin et al.. Pfnek-1 kinase activity was determined by measuring the ^33P incorporation in ß-caseine using γ[^33P]-ATP.\nBriefly, test compounds were dissolved in DMSO and diluted in 20 mM Tris, pH 7.5 20 mM MgCl2, 10 mM NaF and 10 mM ATP. β-casein (3 mg/mL) and γ[^33P]-ATP were added prior to the addition of Pfnek-1 to start the kinase reaction. Approximately 5 μCi of γ[^33P]-ATP was used per reaction. After incubation at 30 °C for 30 min, each solution was blotted on a phosphocellulose filter paper (P81 Whatman-cation exchange chromatography paper). After four washes with 1% H3PO4 at, the remaining radioactivity was measured using a liquid scintillation analyzer Packard 1600TR. The IC50 is defined as the concentration of compound which inhibits 50% of enzyme activity compared to the control (reaction in the absence of inhibitor)."}, "Escherichia coli": {"system": "Escherichia coli", "test": "Antibacterial disc growth inhibition test, E. coli", "type": "cell-based", "procedure": "Activity was evaluated by the standard […] with human pathogenic Staphylococcus aureus and Escherichia coli at 100 μg/disc for a disc of 6 mm diameter (Table 3). […] Bromotyrosine metabolites have already been reported as antibacterials."}, "[2]": {"system": "chloroquine-resistant Plasmodium falciparum strain FcB1", "design": "method as in PMID 15124089", "conditions": "isolated from leaves of Glossocalyx brevipes; cited from earlier work"}, "[3]": {"conditions": "100 μg/disc, disc of 6 mm diameter"}, "[4]": {"conditions": "GST-Pfnek-1, β-casein substrate, 30 °C, 30 min"}, "[5]": {"conditions": "Plasmodium falciparum, FcB1 strain, 48 h incubation, LDH readout"}, "[6]": {"conditions": "FcB1 strain, 48 h incubation, LDH readout"}}, "note": "Where two headings read alike, the source gives them in different places."}
{"compound": "COC1=C(Br)[C@H](O)[C@@]2(C=C1Br)CC(C(=O)NCCCOc1c(Br)cc(CCNC(=O)C3=NO[C@]4(C=C(Br)C(OC)=C(Br)[C@@H]4O)C3)cc1Br)=NO2", "values": [{"measurement": "Antibacterial activity against S. aureus (in words)", "setting": "Staphylococcus aureus; 100 μg/disc", "result": "strong antibacterial activities"}, {"measurement": "Growth inhibition diameter, S. aureus", "setting": "Staphylococcus aureus; [3]", "result": 14, "unit": "mm"}, {"measurement": "IC50", "setting": "[1]; Plasmodium falciparum, FCB1, 48 h", "result": "> 100", "unit": "µM"}, {"measurement": "Pfnek-1 inhibitory activity (in words)", "setting": "Pfnek-1", "result": "inactive"}, {"measurement": "IC50", "setting": "Pfnek-1; [4]", "result": "> 50", "unit": "µM"}, {"measurement": "Antibacterial activity against E. coli (in words)", "setting": "Escherichia coli; 100 μg/disc", "result": "strong antibacterial activities"}, {"measurement": "Growth inhibition diameter, E. coli", "setting": "Escherichia coli; [3]", "result": 16, "unit": "mm"}]}
{"compound": "CC(C)=CCCC(C)=CCC1(CC(=O)O)CC(O)C=CC1=O", "note": "(stereo not drawn) [2-(1′β-geranyl-5′β-hydroxy-2′-oxocyclohex-3′-enyl)acetic acid]", "values": [{"measurement": "Activity against P. falciparum (in words)", "setting": "[2]", "result": "modest activities"}]}
{"compound": "COC1=C(Br)[C@H](O)[C@@]2(C=C1Br)CC(C(=O)NCCCOc1c(Br)cc(C(O)CNC(=O)C3=NO[C@]4(C=C(Br)C(OC)=C(Br)[C@@H]4O)C3)cc1Br)=NO2", "note": "(stereo partly shown) [Compound 2, 11-deoxyfistularin-3]", "values": [{"measurement": "Growth inhibition diameter, S. aureus", "setting": "Staphylococcus aureus; [3]", "result": 0, "unit": "mm"}, {"measurement": "IC50", "setting": "[1]; [5]", "result": "> 100", "unit": "µM"}, {"measurement": "Pfnek-1 inhibitory activity (in words)", "setting": "Pfnek-1", "result": "inactive"}, {"measurement": "IC50", "setting": "Pfnek-1; [4]", "result": "> 50", "unit": "µM"}, {"measurement": "Growth inhibition diameter, E. coli", "setting": "Escherichia coli; [3]", "result": 0, "unit": "mm"}]}
{"compound": "COC(=O)Cc1c(O)cc(Br)c(O)c1Br", "note": "[Compound 4a, Methyl (2,4-dibromo-3,6-dihydroxyphenyl)acetate]", "values": [{"measurement": "Antibacterial activity against S. aureus (in words)", "setting": "Staphylococcus aureus; 100 μg/disc", "result": "inactive"}, {"measurement": "Growth inhibition diameter, S. aureus", "setting": "Staphylococcus aureus; [3]", "result": 0, "unit": "mm"}, {"measurement": "IC50", "setting": "[1]; [5]", "result": 12, "unit": "µM"}, {"measurement": "Antiplasmodial activity against FcB1 P. falciparum (in words)", "setting": "[1]", "result": "moderately active"}, {"measurement": "Pfnek-1 activity of 4a relative to 4b", "setting": "Pfnek-1", "result": "five times more active"}, {"measurement": "Pfnek-1 inhibitory activity (in words)", "setting": "Pfnek-1", "result": "most active"}, {"measurement": "IC50", "setting": "Pfnek-1; [4]", "result": "~1.8", "unit": "µM"}, {"measurement": "Antibacterial activity against E. coli (in words)", "setting": "Escherichia coli; 100 μg/disc", "result": "inactive"}, {"measurement": "Growth inhibition diameter, E. coli", "setting": "Escherichia coli; [3]", "result": 0, "unit": "mm"}]}
{"compound": "COC(=O)Cc1cc(O)c(Br)cc1O", "note": "[Compound 4b, Methyl (4-bromo-3,6-dihydroxyphenyl)acetate]", "values": [{"measurement": "IC50", "setting": "[1]; [5]", "result": 26, "unit": "µM"}, {"measurement": "Pfnek-1 inhibitory activity (in words)", "setting": "Pfnek-1", "result": "moderately active"}, {"measurement": "IC50", "setting": "Pfnek-1; [4]", "result": 10, "unit": "µM"}]}
{"compound": "O=C1Cc2cc(O)ccc2O1", "note": "[Compound 5, 5-Hydroxy-3H-benzofuran-2-one]", "values": [{"measurement": "IC50", "setting": "[1]; [5]", "result": 29, "unit": "µM"}, {"measurement": "IC50", "setting": "Pfnek-1", "result": "> 50", "unit": "µM"}]}
{"compound": "O=C1Cc2c(cc(Br)c(O)c2Br)O1", "note": "[Compound 6a, 4,6-Dibromo-5-hydroxy-3H-benzofuran-2-one]", "values": [{"measurement": "IC50", "setting": "[1]; [5]", "result": 35, "unit": "µM"}, {"measurement": "Pfnek-1 inhibitory activity (in words)", "setting": "Pfnek-1", "result": "inactivity"}, {"measurement": "IC50", "setting": "Pfnek-1; [4]", "result": "> 50", "unit": "µM"}]}
{"compound": "O=C1Cc2cc(O)c(Br)cc2O1", "note": "[Compound 6b, 6-bromo-5-hydroxy-3H-benzofuran-2-one]", "values": [{"measurement": "IC50", "setting": "[1]; [5]", "result": 17, "unit": "µM"}, {"measurement": "Pfnek-1 inhibitory activity (in words)", "setting": "Pfnek-1", "result": "inactivity"}, {"measurement": "IC50", "setting": "Pfnek-1; [4]", "result": "> 50", "unit": "µM"}]}
{"compound": "COC(=O)Cc1cc(O)ccc1O", "note": "[Compound 8, Methyl (2,5-dihydroxyphenyl)acetate]", "values": [{"measurement": "IC50", "setting": "[1]; [5]", "result": 36, "unit": "µM"}, {"measurement": "Pfnek-1 inhibitory activity (in words)", "setting": "Pfnek-1", "result": "inactive"}, {"measurement": "IC50", "setting": "Pfnek-1; [4]", "result": "> 50", "unit": "µM"}]}
{"compound": "COC(=O)Cc1cc(Br)c(O)c(Br)c1O", "note": "[Compound 12, Methyl (3,5-dibromo-2,4-dihydroxyphenyl)acetate]", "values": [{"measurement": "IC50", "setting": "[1]; [5]", "result": "> 100", "unit": "µM"}, {"measurement": "Antiplasmodial activity against FcB1 P. falciparum (in words)", "setting": "[1]", "result": "inactive"}, {"measurement": "Pfnek-1 inhibitory activity (in words)", "setting": "Pfnek-1", "result": "inactive"}, {"measurement": "IC50", "setting": "Pfnek-1; [4]", "result": "> 50", "unit": "µM"}]}
{"compound": "O=C(N[C@H](CO)[C@H](O)c1ccc([N+](=O)[O-])cc1)C(Cl)Cl", "note": "[chloramphenicol, reference compound]", "values": [{"measurement": "Growth inhibition diameter, E. coli", "setting": "Escherichia coli; 30 μg/disc", "result": 17, "unit": "mm"}]}
{"compound": "COC(=O)CC1(CC=C(C)CCC=C(C)C)CC(O)C=CC1=O", "note": "(stereo not drawn) [methyl 2-(1′β-geranyl-5′β-hydroxy-2′-oxocyclohex-3-enyl)acetate]", "values": [{"measurement": "Activity against P. falciparum (in words)", "setting": "[2]", "result": "modest activities"}]}
{"compound": "Methyl (3,6-dibenzoyl-2,4-dibromophenyl)acetate [Compound 13a]", "values": [{"measurement": "IC50", "setting": "[1]; [6]", "result": 22.5, "unit": "µM"}, {"measurement": "Pfnek-1 inhibitory activity (in words)", "setting": "Pfnek-1", "result": "inactivity"}, {"measurement": "IC50", "setting": "Pfnek-1; [4]", "result": "> 50", "unit": "µM"}]}
{"compound": "Methyl (3,6-dibenzoyl-4-bromophenyl)acetate [Compound 13b]", "values": [{"measurement": "IC50", "setting": "[1]; [6]", "result": 13, "unit": "µM"}, {"measurement": "Pfnek-1 inhibitory activity (in words)", "setting": "Pfnek-1", "result": "inactivity"}, {"measurement": "IC50", "setting": "Pfnek-1; [4]", "result": "> 50", "unit": "µM"}]}
{"compound": "gentamycin [reference compound]", "values": [{"measurement": "Growth inhibition diameter, S. aureus", "setting": "Staphylococcus aureus; 10 μg/disc", "result": 16, "unit": "mm"}]}
